Experimental data published in the NIST ThermoML archive (doi:10.1021/acs.jced.5b00845).

What was measured:
[1] = 100 kPa, Liquid, Capillary tube (Ostwald / Ubbelohde) method
[2] = cn = amount concentration of the nth substance listed, in mol/dm3; conditions: 100 kPa, Liquid, Capillary tube (Ostwald / Ubbelohde) method
[3] = mn = molality of the nth substance listed, in mol/kg; conditions: 100 kPa, Liquid, Capillary tube (Ostwald / Ubbelohde) method

O [water]
[1]
Conditions | viscosity [mPa·s]
288.15 K | 1.138
298.15 K | 0.89
308.15 K | 0.719
318.15 K | 0.596

O=C(CO)[C@@H](O)[C@H](O)[C@H](O)CO [D-fructose] + O
viscosity [mPa·s], [2]
Conditions | c1 = 0.0628 | c1 = 0.06594 | c1 = 0.08345 | c1 = 0.1124 | c1 = 0.1285 | c1 = 0.1523
288.15 K | 1.174 | 1.175 | 1.185 | 1.201 | 1.209 | 1.222
298.15 K | 0.916 | 0.917 | 0.924 | 0.935 | 0.941 | 0.951
308.15 K | 0.739 | 0.74 | 0.745 | 0.754 | 0.759 | 0.766
318.15 K | 0.61 | 0.611 | 0.614 | 0.621 | 0.624 | 0.629

O=P([O-])(O)O.[K+] [monopotassium phosphate] + O
viscosity [mPa·s], [3]
Conditions | 288.15 K | 298.15 K | 308.15 K | 318.15 K
m1 = 0.25 | 1.236 | 0.972 | 0.777 | 0.633
m1 = 0.5 | 1.301 | 1.025 | 0.815 | 0.666
m1 = 1 | 1.539 | 1.159 | 0.939 | 0.763
m1 = 1.25 | 1.636 | 1.294 | 1.027 | 0.84
